From PubChem BioAssay (NCI)
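In this assay, cells in 96-well plates receive the compound at five concentrations for 48 hours. Endpoints are linearly interpolated between the surrounding concentrations. TGI: concentration producing complete growth inhibition.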

Assays:
Test in all cases: DTP human tumour cell line panel, 48 h
[1] = test system: NCI-H23 lung
[2] = test system: EKVX NSCLC
[3] = test system: SF-539 CNS
[4] = test system: SNB-75 CNS
[5] = test system: OVCAR-8 ovarian
[6] = test system: MALME-3M melanoma
[7] = test system: NCI-H460 lung
[8] = test system: UACC-257 melanoma
[9] = test system: NCI-H522 lung
[10] = test system: SK-OV-3 ovarian
[11] = test system: LOX IMVI melanoma
[12] = test system: SNB-19 CNS
[13] = test system: TK-10 renal
[14] = test system: A498 renal
[15] = test system: MCF7 breast
[16] = test system: MDA-MB-231 breast
[17] = test system: NCI/ADR-RES ovarian
[18] = test system: MDA-MB-435

SMILES	TGI [1]	TGI [2]	TGI [3]	TGI [4]	TGI [5]	TGI [6]	TGI [7]	TGI [8]	TGI [9]	TGI [10]	TGI [11]	TGI [12]	TGI [13]	TGI [14]	TGI [15]	TGI [16]	TGI [17]	TGI [18]
CC1=CP(=O)(OC(C)C)C=C(C)C1=C(Cl)Cl (stereo not drawn)	> 100 µM	> 100 µM	> 100 µM	> 100 µM	> 100 µM	> 100 µM	> 100 µM	> 100 µM	9.03 µM	33.4 µM	> 100 µM	> 100 µM	> 100 µM	–	–	–	–	–
Nc1nc(N)c(N=Nc2ccccc2)c(=O)[nH]1	93 µM	–	> 100 µM	23.7 µM	> 100 µM	69.6 µM	> 100 µM	> 100 µM	> 100 µM	> 100 µM	> 100 µM	> 100 µM	> 100 µM	> 100 µM	–	–	–	–
CN1CC=C(C#CC(C)(C)O)CC1	> 37.5 µM	> 37.5 µM	–	> 37.5 µM	> 37.5 µM	> 37.5 µM	> 37.5 µM	> 37.5 µM	–	> 37.5 µM	> 37.5 µM	> 37.5 µM	> 37.5 µM	–	> 37.5 µM	> 37.5 µM	> 37.5 µM	> 37.5 µM
COC(=O)C(Cc1c(-c2[nH]c3ccccc3c2CC(NC(C)=O)C(=O)OC)[nH]c2ccccc12)NC(C)=O (stereo not drawn)	> 100 µM	> 100 µM	> 100 µM	> 100 µM	> 100 µM	> 100 µM	> 100 µM	> 100 µM	> 100 µM	> 100 µM	> 100 µM	> 100 µM	> 100 µM	> 100 µM	–	> 100 µM	> 100 µM	> 100 µM
CC(=O)c1ccc(NC(=O)C(=O)CC(=O)c2sc(-n3nc(-c4ccccc4)cc3-c3ccccc3)nc2C)cc1	> 100 µM	> 100 µM	> 100 µM	–	> 100 µM	> 100 µM	> 100 µM	> 100 µM	> 100 µM	> 100 µM	> 100 µM	> 100 µM	> 100 µM	> 100 µM	–	–	–	–
O=C(Cn1c2ccc(Br)cc2c2nc3ccccc3nc21)NNC(=O)NC1CCCCC1	> 100 µM	> 100 µM	> 100 µM	73.5 µM	> 100 µM	> 100 µM	> 100 µM	> 100 µM	> 100 µM	> 100 µM	> 100 µM	> 100 µM	> 100 µM	> 100 µM	> 100 µM	> 100 µM	–	> 100 µM
Cc1ccc(S(=O)(=O)NC(=O)NC(CCCCN)C(=O)O)cc1 (stereo not drawn)	> 100 µM	–	> 100 µM	> 100 µM	> 100 µM	> 100 µM	> 100 µM	> 100 µM	> 100 µM	> 100 µM	> 100 µM	> 100 µM	> 100 µM	–	> 100 µM	> 100 µM	> 100 µM	–
